According to patent US20240316130A1 (priority 2023, published 2024):
Entries after “also recorded” stand apart in the source; their conditions may differ.

Assays:
MYXV = assay: microbe, parasite or virus in culture; assay type: cell-based, myxoma virus
A9F1 cells = assay type: cell-based
B16F10 cells = assay type: cell-based, murine; conditions: 24 hours

Row | SMILES | arginine concentration at which maximal viral replication occurs (MYXV) | EC50 (MYXV; Myxoma virus, 24 h, read-out: EC50 of exogenous arginine for production of new infectious MYXV progeny) | rescue of cytostasis by supplement (A9F1 cells) | rescue of MYXV replication by supplement (B16F10 cells)
1 | N=C(N)NCCC[C@H](N)C(=O)O [arginine] | at least 100 μM | ~50 µM | – | –
2 | NC(=O)NCCC[C@H](N)C(=O)O [citrulline, L-Citrulline] | – | – | could not be rescued | support myxoma virus replication; also recorded: could also rescue MYXV replication
